Source: patent publication US10993935B2, “Compositions and methods for treatment of lung infections” (priority 2018, dated 2021)

What was measured:
[1] = test system: P. aeruginosa PAO581 (PAO1mucA25); assay: NIH drug library screen for inhibition of growth, mucoidy and PalgD-lacZ colour; format: cell-based, Pseudomonas aeruginosa
[2] = Adverse effects after nebulization in mice; format: in vivo, C57BL/6 mice; conditions: mouse, in vivo
Method: Drug Nebulization. C57BL/6 mice (n=8) were first exposed to 5 mL DMSO for 10 minutes to determine any adverse effects that may occur from using DMSO. Mice (n=16) were then exposed to TOB in 0.225% saline or RFX in DMSO via nebulization until the 5 mL drug mixture was depleted—typically 10-15 minutes. Nebulization was conducted using the pressure-based nebulizer and chamber purchased from Kent Scientific (Torrington, Conn.). TOB was nebulized at concentrations of 100 mg (n=4) or 400 mg (n=4) in 5 mL of 0.225% saline. RFX was nebulized at concentrations of 100 mg (n=4) or 400 mg (n=4) in 5 ml of 100% dimethyl sulfoxide. Mice were sacrificed immediately after nebulization via CO2 chamber. Lungs were then collected and homogenized. TOB concentrations were measured using ELISA. RFX concentrations were measured via HPLC.
The potential adverse effects of using DMSO were first assessed by nebulizing DMSO alone to a group of C57BL/6 mice (n=8). This type of mice was used due to their natural resistance against infection based on our previous studies. […] To determine the dosage of each drug received by the mice, the lungs were homogenized and drug concentrations of TOB and RFX were determined via ELISA and HPLC, respectively. […] The droplet size for both TOB and RFX were determined to be identical with the average droplet size for TOB and RFX being 5.07 μm and 5.02 μm, respectively. […]

CO[C@H]1/C=C/O[C@@]2(C)Oc3c(C)c(O)c4c(O)c(c5c(nc6cc(C)ccn65)c4c3C2=O)NC(=O)/C(C)=C\C=C\[C@H](C)[C@H](O)[C@@H](C)[C@@H](O)[C@@H](C)[C@H](OC(C)=O)[C@@H]1C [RFX, rifaximin]
Growth 2 μM ([1]; drug at 2 μM, PAO581 on PIA): Reduced
Mucoidy 2 μM ([1]; drug at 2 μM, PAO581 with pLP170-PalgD-lacZ on PIA + X-gal): Reduced
Color 2 μM ([1]; drug at 2 μM, X-gal colour of PalgD-lacZ reporter, 'Light' wraps to 'Light Blue'): Clear
Growth 10 μM ([1]; drug at 10 μM, PAO581 on PIA): Inhibited
Growth 50 μM ([1]; drug at 50 μM, PAO581 on PIA): Inhibited
adverse effects [2]: no adverse effects
